Measured values published in article PMC2365101, “Anti-Inflammatory Activity of (Polyphenolic)-Sulfonates and Their Sodium Salts in Rodents” (Metal-Based Drugs, 1998).

Key:
[1] = test system: CF1 male mice, LPS Salmonella abortus equi induced death; assay: Protection against septic shock (LPS induced endotoxic shock); assay type: in vivo; details: for Percent Survival at 52 hr: LPS 10 mg/kg, CF1 male mice, N=6
Text: Few reports in the literature indicate interaction at these receptor sites other than by peptides or antibodies. […] Blocking these receptors is desirable because the entire inflammation cascade of events is triggered by the early release of TNFa and IL-1. […] Radioisotopes were obtained from New England Nuclear [Dupont, Boston, MA] and substrates and co- factors were obtained from Sigma Chemical Co. [St. Louis, MO]. […] Cell lines were obtained from American Type Culture Collection [Rockville, MD]. In Vivo Tests Anti-inflammatory screen in mice: Male CF male mice weighing 28-32g obtained from Jackson Lab. [Bar Harbor, […]] were used to screen agents at 8 or 16 mg/kg intraperitoneal [I.P.] x 2 administered 3 hr and 30 min prior to administering the irritant, according to Winter's protocol. Evaluation of the induced edema was made by injecting 2% carrageenan in 0.9% saline into the plantar region of the foot. The opposite foot injected with 0.9% isotonic saline was used as a base line. […] Salmonella abortus equi [Lot # 69F4003] […] Drugs from 2 to 16 mg/kg, I.P. were administered 2 hr prior and 2 hr post-injection of the LPS and then subsequently for every 24 hr for the length ofthe animals' lives. Deaths were recorded every 12 hr and continued for 96 hr. […] In vitro TNFa andIL-1 Measurements and Cellular Regulation IC-21 mouse macrophages were maintained in RPMI-1640 + 10% FCS + P/S. After the cells had grown to confluency, E. coli LPS at 10 Ixg/ml was added to the medium. Agents were incubated at 12.5 to 100 µM final concentration for 18 hr. The medium (100 btl) was collected for TNFCt determinations. Interleukin-1 [IL-1] release was determined using P388D1 cells which were maintained in RPMI-1640 + 10% FCS + P/S. The L929 bioassay was used to quantitate the TNF and the IL-1 levels. The L929 mouse fibroblasts were grown in DMEM + 10% FCS + P/S to confluency in 96 well plates and incubated with 100 tl ofmedium from […] or P388D cells after 18 hr. The cells were stained with 0.2% crystal violet in 20% MeOH and read at 580 nm using a Molecular Devices scanner (SOFT-max program). High Affinity Binding to Receptors on L929-106 Cells Two laCi of 125I-TNFct (human recombinant, 30 mCi/tg New England Nuclear) or 125I-IL-1 (70-120[.t Ci/lxg,New England Nuclear) was added to confluency L929 cells for 90 min or 5 hr, respectively with 25, 50 and 100 tM of the test compounds 12]. The cells were washed repeatedly with isotonic saline, pH.7.2 and aliquots counted. Prostaglandin cylcooxygenase activity Mouse J774AI macrophages maintained in Dulbecco's modified Eagle's medium + 15% FCS + P/S. Cells (5 x 106) were incubated with agents (5 to 100 ].tM final concentration) and 3H-arachidonic acid (100 Ci/mol) for 60 min at 37C in a CO2 incubator. The reaction was terminated with 2N HCI, the mixture extracted 2 X with ether, and the organic layer evaporated.

[2] = target: T1, IL-2 high affinity receptor on HUT78 T lymphoma cell membrane (Homo sapiens, UniProt P01589+P14784); assay: 125I-IL-2 high affinity binding to HuT78 T lymphoma cells; details: for 125I-IL-2 binding, Percent of Control: N=6
T1 construct: host or cells: HuT78 T lymphoma cells
T1 sequence (P01589 22-272): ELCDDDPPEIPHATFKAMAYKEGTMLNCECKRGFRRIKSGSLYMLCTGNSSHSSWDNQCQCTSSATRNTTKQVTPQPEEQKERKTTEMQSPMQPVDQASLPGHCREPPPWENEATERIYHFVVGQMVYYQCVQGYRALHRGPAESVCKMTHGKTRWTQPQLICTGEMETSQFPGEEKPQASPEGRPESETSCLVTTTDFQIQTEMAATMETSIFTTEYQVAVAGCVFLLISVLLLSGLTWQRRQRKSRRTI
T1 sequence (P14784 27-551): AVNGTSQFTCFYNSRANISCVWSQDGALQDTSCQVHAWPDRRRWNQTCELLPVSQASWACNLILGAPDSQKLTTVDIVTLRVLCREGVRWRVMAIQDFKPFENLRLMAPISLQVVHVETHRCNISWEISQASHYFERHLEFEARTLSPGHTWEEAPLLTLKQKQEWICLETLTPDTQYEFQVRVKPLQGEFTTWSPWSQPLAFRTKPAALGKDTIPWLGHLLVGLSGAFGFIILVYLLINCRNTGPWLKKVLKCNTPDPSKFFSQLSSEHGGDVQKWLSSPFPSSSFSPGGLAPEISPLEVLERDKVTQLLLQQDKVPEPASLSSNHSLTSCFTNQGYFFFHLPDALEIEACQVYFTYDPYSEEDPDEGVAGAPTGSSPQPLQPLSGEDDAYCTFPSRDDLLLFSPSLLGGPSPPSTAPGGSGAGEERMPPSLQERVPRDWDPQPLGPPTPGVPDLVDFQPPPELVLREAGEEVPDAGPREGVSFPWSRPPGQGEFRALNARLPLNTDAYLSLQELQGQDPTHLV

[3] = test system: RPMI 1788 leukocytes adhesion to L929 fibroblasts; assay: Adhesion of human leukocytes RPMI-1788 to confluent L929 fibroblasts; assay type: cell-based; details: N=6
[4] = test system: J774 A1 mouse macrophages adhesion to L929 fibroblasts; assay: Adhesion of J-774 A1 mouse macrophages to confluent L929 fibroblasts; assay type: cell-based; details: for Adhesion, Percent of Control: N=6

Pentosan sulfate [Pentosan polysulfate, reference compound]
Percent Survival at 52 hr ([1]; 8 mg/Kg I.P.): 67% | Percent Survival at 52 hr ([1]; 16 mg/Kg I.P.): 83% | protection from LPS induced death ([1]; 16 mg/kg): 83% | 125I-IL-2 binding, Percent of Control ([2]; 5 μM, 2 Hours): 362 + 9% of Control | 125I-IL-2 binding, Percent of Control ([2]; 5 μM, 5 Hours): 148 + 5% of Control | 125I-IL-2 binding, Percent of Control ([2]; 12.5 μM, 2 Hours): 188 + 5% of Control | 125I-IL-2 binding, Percent of Control ([2]; 12.5 μM, 5 Hours): 89 + 6% of Control | 125I-IL-2 binding, Percent of Control ([2]; 25 μM, 2 Hours): 123 + 7% of Control | 125I-IL-2 binding, Percent of Control ([2]; 25 μM, 5 Hours): 81 + 6% of Control | 125I-IL-2 binding, Percent of Control ([2]; 50 μM, 2 Hours): 104 + 6% of Control | 125I-IL-2 binding, Percent of Control ([2]; 50 μM, 5 Hours): 55 + 4% of Control | reduction of IL-2 high affinity binding ([2]; 50 μM, 5 hr): 45% | Adhesion, Percent of Control ([3]; 12.5 μM, 2 Hours): 83+5% of Control | Adhesion, Percent of Control ([3]; 12.5 μM, 5 Hours): 82+5% of Control | Adhesion, Percent of Control ([3]; 25 μM, 2 Hours): 116+6% of Control | Adhesion, Percent of Control ([3]; 25 μM, 5 Hours): 82+6% of Control | Adhesion, Percent of Control ([3]; 50 μM, 2 Hours): 147+6% of Control | Adhesion, Percent of Control ([4]; 5 μM, 2 Hours): 75+7% of Control | Adhesion, Percent of Control ([4]; 5 μM, 5 Hours): 103+5% of Control | Adhesion, Percent of Control ([4]; 5 μM, 90 min): 329 + 12% of Control | Adhesion, Percent of Control ([4]; 12.5 μM, 2 Hours): 53 + 6% of Control | Adhesion, Percent of Control ([4]; 12.5 μM, 5 Hours): 108+7% of Control | Adhesion, Percent of Control ([4]; 12.5 μM, 90 min): 363 + 16% of Control | reduction of J774A1 macrophage adhesion ([4]; 12.5 μM, 2 hr): 47% | Adhesion, Percent of Control ([4]; 25 μM, 2 Hours): 66+ 5% of Control | Adhesion, Percent of Control ([4]; 25 μM, 5 Hours): 169+6% of Control | Adhesion, Percent of Control ([4]; 25 μM, 90 min): 260 + 9% of Control | Adhesion, Percent of Control ([4]; 50 μM, 2 Hours): 110+6% of Control | Adhesion, Percent of Control ([4]; 50 μM, 5 Hours): 187 + 7% of Control | Adhesion, Percent of Control ([4]; 50 μM, 90 min): 176 +6% of Control
